In PMC6222789, “CF3-Substituted Mollugin 2-(4-Morpholinyl)-ethyl ester as a Potential Anti-inflammatory Agent with Improved Aqueous Solubility and Metabolic Stability” (Molecules : A Journal of Synthetic Chemistry and Natural …, 2018):

How the values were obtained:
[1] = Metabolic stability, dog liver microsomes; assay type: in vitro ADME
Method: (§1) Pooled human liver microsomes (150 donor) and dog, rat, mouse liver microsomes were obtained from BD Gentest Co. (Woburn, MA, USA). NADPH regeneration system was obtained from Promega. S-Mephenytoin, 4-hydroxymephenytoin, and 1’-hydroxymidazolam were purchased from Ultrafine Chemical Co. (Manchester, UK). All other chemicals and solvents were of the highest grade available. The metabolic stability assay was performed by incubation of human or selected animal liver microsomes (most often dog, rat and mouse), at 37 °C with a test compound at a final concentration of 1 μM, in the presence of 0.5 mg/mL microsomal protein and NADPH regeneration system, in a total volume of 100 μL of 100 mM phosphate buffer, pH 7.4. The incubation was started by the addition of NADPH regeneration system and terminated with 40 μL of ice-cold acetonitrile at 0 and 30 min. Precipitated proteins were removed by centrifugation at 10,000× g for 5 min at 4 °C. Aliquots of the supernatant were injected onto an LC-MS/MS system. Incubations terminated prior to the addition of NADPH regeneration system (time point 0 min) were used as standards, defined as 100%. Percent of the parent compound remaining was calculated by comparing peak area.

[2] = tested on: IL-6-induced adhesion of U937 monocytic cells to HT-29 cells; experiment: IL-6-induced colonic epithelial cell adhesion assay; assay type: cell-based, human; settings: U937 adhesion to HT-29 cells, IL-6-induced
Method: (§2) Synthesized mollugin derivatives were subjected to the colonic epithelial cell adhesion assay, which mimics the initial stage of colon inflammation. The inhibition of TNF-α-induced or IL-6-induced adhesion of U937 monocytic cells to HT-29 cells in 10 μM solution of synthesized molecules was measured, and the results are summarized in Table 1 and Table 2. Mesalazine (2), a commercially available medication for the treatment of IBD, and mollugin were chosen as assay positive controls.
(§3) HT-29 human colonic epithelial cells and U937 human pre-monocytic cells were grown in RPMI 1640 medium supplemented with 10% FBS, 100 IU/mL penicillin, and 100 µg/mL streptomycin in a humidified incubator under 5% CO2/95% air.
(§4) U937 monocytic cell adhesion to colonic epithelial cells was evaluated using human U937 pre-monocytic cells, which were prelabeled with 2′,7′-bis(2-carboxyethyl)-5(6)-carboxyfluorescein acetoxymethyl ester (BCECF/AM, 10 μg/mL) for 1 h at 37 °C. HT-29 cells cultured in 24-well plates were pretreated with test compound, 5-ASA, or tofacitinib for 1 h prior to incubation with TNF-α (10 ng/mL) and IL-6 (5 ng/mL) for an additional 3 h. Cells were then co-incubated with BCECF/AM-prelabeled U937 cells (1 × 10^6 cells/well) for 30 min at 37 °C. Non-adhering U937 cells were removed, and the HT-29 cells and adherent U937 cells were washed twice with PBS. Images were captured and processed with a Nikon ECLIPSE TE2000-U microscope and NIS-Elements F software (Nikon, Tokyo, Japan). For quantitative analysis, other sets of cells were lysed in 0.1% Triton X-100 in Tris (0.1 M), and the fluorescence was measured using a fluorescence-detecting microplate reader (Promega , Madison, WI, USA) at […]. Experiments were performed in triplicate and repeated at least three times independently.

[3] = Plasma stability, rat plasma; assay type: in vitro ADME
Method: (§5) The plasma stability assay was performed by incubation of human or rat plasma with a test compound in a final concentration of 1 μM for 120 min at 37 °C. The incubation was terminated by addition of 40 μL of ice-cold acetonitrile and vortexing for 5 min. The precipitated proteins were removed by centrifugation at 14,000× g for 5 min at 4 °C. Aliquots of the supernatant were injected onto a Shimadzu Nexera XR LC system. Percentages of the parent compound remaining were calculated by comparing peak areas using the Xcalibur software (version 1.6.1, Waltham, MA, USA).

hERG channel = target: T1, hERG channel (Homo sapiens, UniProt Q12809); experiment: hERG channel binding assay (fluorescence polarization)
T1 construct: purchased Invitrogen PV5365
T1 sequence (Q12809 whole entry): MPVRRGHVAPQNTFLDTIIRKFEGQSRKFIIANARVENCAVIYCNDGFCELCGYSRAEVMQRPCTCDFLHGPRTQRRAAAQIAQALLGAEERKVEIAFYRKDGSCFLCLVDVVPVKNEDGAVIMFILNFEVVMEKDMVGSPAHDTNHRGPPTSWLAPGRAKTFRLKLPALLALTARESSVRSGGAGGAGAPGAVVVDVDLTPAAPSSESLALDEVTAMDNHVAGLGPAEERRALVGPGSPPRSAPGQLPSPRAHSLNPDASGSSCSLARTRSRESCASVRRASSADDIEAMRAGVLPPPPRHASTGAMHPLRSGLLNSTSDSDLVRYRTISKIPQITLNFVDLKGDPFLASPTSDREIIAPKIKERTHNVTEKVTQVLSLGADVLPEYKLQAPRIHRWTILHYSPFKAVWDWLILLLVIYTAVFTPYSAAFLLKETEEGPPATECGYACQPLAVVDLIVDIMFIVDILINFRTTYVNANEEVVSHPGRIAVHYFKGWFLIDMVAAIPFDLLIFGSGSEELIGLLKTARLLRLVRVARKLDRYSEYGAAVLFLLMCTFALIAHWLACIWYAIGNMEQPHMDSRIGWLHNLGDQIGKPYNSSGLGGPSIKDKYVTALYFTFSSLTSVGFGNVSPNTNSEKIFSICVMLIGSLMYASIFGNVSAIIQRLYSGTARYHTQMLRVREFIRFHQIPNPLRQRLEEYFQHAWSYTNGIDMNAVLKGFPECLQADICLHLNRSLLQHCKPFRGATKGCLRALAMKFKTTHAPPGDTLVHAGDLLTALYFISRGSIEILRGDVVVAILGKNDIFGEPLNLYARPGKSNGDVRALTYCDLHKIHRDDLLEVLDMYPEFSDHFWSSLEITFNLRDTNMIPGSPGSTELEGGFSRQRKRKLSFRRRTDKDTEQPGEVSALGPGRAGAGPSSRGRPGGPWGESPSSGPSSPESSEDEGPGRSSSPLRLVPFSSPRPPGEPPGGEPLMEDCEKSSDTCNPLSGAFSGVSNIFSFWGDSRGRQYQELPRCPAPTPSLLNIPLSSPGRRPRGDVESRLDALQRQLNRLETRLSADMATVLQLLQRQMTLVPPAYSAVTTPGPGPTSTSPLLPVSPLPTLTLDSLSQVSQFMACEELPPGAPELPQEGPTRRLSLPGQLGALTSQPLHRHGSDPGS
Method: hERG channel binding assay was performed using Invitrogen’s hERG Fluorescence Polarization Assay kit (PV5365) with Synergy Neo plate reader (BioTek, Winooski, VT, USA). The binding assay was carried out according to the kit manufacturer’s instructions.

[4] = tested on: TNF-α-induced adhesion of U937 monocytic cells to HT-29 cells; experiment: TNF-α-induced colonic epithelial cell adhesion assay; assay type: cell-based, human; settings: U937 adhesion to HT-29 cells, TNF-α-induced
Method: as §2, §3, §4

[5] = Plasma stability, human plasma; assay type: in vitro ADME; settings: 37 °C, 1 μM
Method: as §5

[6] = Metabolic stability, mouse liver microsomes; assay type: in vitro ADME
Method: as §1

[7] = Metabolic stability, rat liver microsomes; assay type: in vitro ADME
Method: as §1

[8] = Metabolic stability, human liver microsomes; assay type: in vitro ADME; settings: 1 μM
Method: as §1

[9] = tested on: TNF-α-induced adhesion of U937 monocytic cells to HT-29 cells; design: method as in PMID 19765578; settings: cell adhesion assay and IBD animal model; cited from earlier work
Serum Amyloid A (SAA) = experiment: Serum SAA level in DSS-induced colitis mouse model (ELISA); assay type: in vivo; settings: 4% DSS-induced mouse model; mesalazine 20 mM; ELISA
Method: The level of Serum Amyloid A (SAA) was measured using a mouse SAA ELISA kit according to the manufacturer’s instructions (E-90SAA, Immunology Consultants Laboratory, Inc., Portland, OR, USA). All samples were assayed in duplicate. The concentrations of SAA were determined by comparison to serial dilutions of purified SAA calibrator.
Figure 2 Analysis of mouse serum amyloid A (SAA) level. Effect of 6d on the level of SAA in the 4% dextran sulfate sodium (DSS)-induced mouse model. The level of SAA in serum was determined by ELISA. The control mice received water + vehicle (water), and the treated groups received 4% DSS + vehicle or DSS with mesalazine (20 mM), 6d (10 μM), or 15c (10 μM). TEXT PRINTED IN THE PICTURE: vehecle: mSS assay (ng/ml): 252.08 | vehecle: mSS assay (ng/ml): 732.93 (4% DSS) | 2: mSS assay (ng/ml): 788.86 (4% DSS) | 6d: mSS assay (ng/ml): 295.77 (4% DSS) | 15c: mSS assay (ng/ml): 300.95 (4% DSS)

[10] = Homo sapiens, Epithelial cell, 10 uM
[11] = Homo sapiens, Epithelial cell, at 20 mM

metabolic stability with dog liver microsomes [1] | Metabolic Stability (% Remain, 30 min) Dog ([1]; 30 min, 1 μM) | stability in rat plasma [3] | Plasma Stability (% Remain, 2 h) Rat ([3]; 2 h, 37 °C, 1 μM) | Plasma Stability (% Remain, 2 h) Human [5] | metabolic stability with mouse liver microsomes [6] | Metabolic Stability (% Remain, 30 min) Mouse ([6]; 30 min, 1 μM) | metabolic stability with rat liver microsomes [7] | Metabolic Stability (% Remain, 30 min) Rat ([7]; 30 min, 1 μM) | Metabolic Stability (% Remain, 30 min) Human [8] | Structure (SMILES) | inhibition at 10 µM [2, 10] | IC50 (hERG channel) | inhibition at 10 µM [4, 10] | improved efficacy over mesalazine [9] | inhibition at 20000 µM [2, 11] | % Inhibition IL-6 ([2]; at 20 mM, listed as 2 (5-ASA)) | inhibition at 20000 µM [4, 11] | % Inhibition TNF-α ([4]; at 20 mM, listed as 2 (5-ASA)) | serum SAA level (mSS assay) (Serum Amyloid A (SAA))
generally unstable | 33 % Remain | unstable | 16 % Remain | 92 % Remain | generally unstable | 40 % Remain | generally unstable | 19 % Remain | 33 % Remain | COC(=O)c1c2c(c3ccccc3c1O)OC(C)(C)C=C2 [compound 1, mollugin] | 40.8 ± 6.2% | > 10 µM | 37.8 ± 5.7% | at least 1000 fold | – | – | – | – | –
– | – | – | – | – | – | – | – | – | – | Nc1ccc(O)c(C(=O)O)c1 [compound 2, 5-Aminosalicylic acid, reference compound] | – | – | – | – | ~30% | 32.6 ± 7.3 (at 20 mM) % | ~30% | 28.8 ± 7.7 (at 20 mM) % | 788.86 ng/mL
